Read-outs that look alike come from different tables or passages of the source.
Experiments:
reactive oxygen species = type: cell-based, mouse; conditions: for ROS (composite Z-score): normalized score vs mock-treated (DMSO) wells
C2C12 myotubes = conditions: for Viability (composite Z-score): normalized score vs mock-treated (DMSO) wells
mtOXPHOS transcripts = type: cell-based, mouse; conditions: for mitoOX (composite Z-score): normalized score vs mock-treated (DMSO) wells
nuOXPHOS transcripts = type: cell-based, mouse; conditions: for nucOX (composite Z-score): normalized score vs mock-treated (DMSO) wells
[1] = test system: cellular dehydrogenase activity; conditions: for MTT (composite Z-score): normalized score vs mock-treated (DMSO) wells
OXPHOS gene expression = type: cell-based, mouse; conditions: for GE-HTS (composite Z-score): normalized score vs mock-treated (DMSO) wells
cytochrome c = type: cell-based, mouse; conditions: for cyt c (composite Z-score): normalized score vs mock-treated (DMSO) wells
[2] = test system: mitochondrial membrane potential; type: cell-based, mouse; conditions: for ΔΨm (composite Z-score): normalized score vs mock-treated (DMSO) wells
[3] = normalized composite Z-score vs mock-treated (DMSO) wells, Conc 20 μM
[4] = composite Z-score vs mock-treated (DMSO) wells, Conc 20 μM
[5] = composite Z-score vs DMSO, Conc 20 μM
[6] = composite Z-score vs DMSO wells, Conc 20 μM
[7] = 20 μM, composite Z-score vs DMSO
[8] = composite Z-score vs mock-treated (DMSO) wells, concentration of each compound in μM

**Q.** How did the ROS (reactive oxygen species; [3]) turn out when `C[C@@H]1O[C@@H](O[C@H]2[C@H](Oc3cc(O)c4c(=O)cc(-c5ccc(O)cc5)oc4c3)O[C@H](CO)[C@@H](O)[C@@H]2O)[C@H](O)[C@H](O)[C@H]1O` [rhoifolin] was run?
**A.** The ROS was 0.471.

**Q.** And the Viability (C2C12 myotubes; [3])?
**A.** The Viability was 0.089.

**Q.** What about the mitoOX (mtOXPHOS transcripts; [3]) of the same molecule?
**A.** Its mitoOX is −0.768.

**Q.** And the nucOX (nuOXPHOS transcripts; [3])?
**A.** Its nucOX is −0.774.

**Q.** And the MTT [1, 3]?
**A.** Its MTT is −0.683.

**Q.** And the GE-HTS (OXPHOS gene expression; [3])?
**A.** Its GE-HTS is −0.838.

**Q.** What about the cyt c (cytochrome c; [3]) of the same molecule?
**A.** The cyt c was 0.515.

**Q.** And the ΔΨm [2, 3]?
**A.** Its ΔΨm is −0.213.

**Q.** For `C1COC(NC(C2CC2)C2CC2)=N1` [rilmenidine], which ROS (reactive oxygen species) is on record?
**A.** Its ROS is 0.340.

**Q.** And the Viability (C2C12 myotubes)?
**A.** The Viability was 0.245.

**Q.** What about the mitoOX (mtOXPHOS transcripts) of the same molecule?
**A.** Its mitoOX is −0.313.

**Q.** What about the nucOX (nuOXPHOS transcripts) of the same molecule?
**A.** Its nucOX is 0.319.

**Q.** And the MTT [1]?
**A.** Its MTT is 0.082.

**Q.** What about the GE-HTS (OXPHOS gene expression) of the same molecule?
**A.** The GE-HTS was 0.123.

**Q.** And the cyt c (cytochrome c)?
**A.** The cyt c was −0.042.

**Q.** And the ΔΨm [2]?
**A.** Its ΔΨm is −0.589.

**Q.** Which results are given for `COc1ccc(-c2c(OC)c3c(OC)c4c(cc3oc2=O)OC(C)(C)C=C4)cc1` [robustic acid methyl ether, reference compound]?
**A.** ROS (composite Z-score) (reactive oxygen species; Conc 20 μM): 1.431; Viability (composite Z-score) (C2C12 myotubes; Conc 20 μM): 0.497; mitoOX (composite Z-score) (mtOXPHOS transcripts; Conc 20 μM): −0.223; nucOX (composite Z-score) (nuOXPHOS transcripts; Conc 20 μM): 0.444; MTT (composite Z-score) ([1]; Conc 20 μM): 0.474; GE-HTS (composite Z-score) (OXPHOS gene expression; Conc 20 μM): 0.230; cyt c (composite Z-score) (cytochrome c; Conc 20 μM): 0.679; ΔΨm (composite Z-score) ([2]; Conc 20 μM): 0.692

**Q.** Which “ROS (composite Z-score)” value (reactive oxygen species; Conc 20 μM) does the source give for `COc1ccc(-c2c(O)c3c(OC)c4c(cc3oc2=O)OC(C)(C)C=C4)cc1` [robustic acid, reference compound] here?
**A.** The value was −0.119.

**Q.** And the “Viability (composite Z-score)” value (C2C12 myotubes; Conc 20 μM)?
**A.** Its value is −1.213.

**Q.** What about the “mitoOX (composite Z-score)” value (mtOXPHOS transcripts; Conc 20 μM) of the same molecule?
**A.** The value was −0.587.

**Q.** What about the “nucOX (composite Z-score)” value (nuOXPHOS transcripts; Conc 20 μM) of the same molecule?
**A.** The value was −0.973.

**Q.** What about the “MTT (composite Z-score)” value ([1]; Conc 20 μM) of the same molecule?
**A.** Its value is −1.831.

**Q.** What about the “GE-HTS (composite Z-score)” value (OXPHOS gene expression; Conc 20 μM) of the same molecule?
**A.** The value was −0.930.

**Q.** And the “cyt c (composite Z-score)” value (cytochrome c; Conc 20 μM)?
**A.** Its value is −0.459.

**Q.** What about the “ΔΨm (composite Z-score)” value ([2]; Conc 20 μM) of the same molecule?
**A.** The value was −1.086.

**Q.** How did the ROS (reactive oxygen species; [4]) turn out when `COc1cc2c(cc1OC)[C@@H]1C(=O)c3ccc(OC)c(CC=C(C)C)c3O[C@@H]1CO2` [rotenonic acid, methyl ether] was run?
**A.** Its ROS is −3.513.

**Q.** What about the Viability (C2C12 myotubes; [4]) of the same molecule?
**A.** Its Viability is 0.582.

**Q.** What about the mitoOX (mtOXPHOS transcripts; [4]) of the same molecule?
**A.** Its mitoOX is −4.305.

**Q.** And the nucOX (nuOXPHOS transcripts; [4])?
**A.** Its nucOX is −1.024.

**Q.** What about the MTT [1, 4] of the same molecule?
**A.** Its MTT is −3.898.

**Q.** And the GE-HTS (OXPHOS gene expression; [4])?
**A.** Its GE-HTS is −2.268.

**Q.** What about the cyt c (cytochrome c; [4]) of the same molecule?
**A.** The cyt c was −3.644.

**Q.** What about the ΔΨm [2, 4] of the same molecule?
**A.** Its ΔΨm is −3.751.

**Q.** For `COc1cc2c(cc1OC)[C@@H]1C(=O)c3ccc(O)c(CC=C(C)C)c3O[C@@H]1CO2` [rotenonic acid, reference compound], which ROS (reactive oxygen species; [4]) is on record?
**A.** The ROS was 0.173.

**Q.** And the Viability (C2C12 myotubes; [4])?
**A.** The Viability was 0.206.

**Q.** And the mitoOX (mtOXPHOS transcripts; [4])?
**A.** The mitoOX was −0.108.

**Q.** What about the nucOX (nuOXPHOS transcripts; [4]) of the same molecule?
**A.** The nucOX was −0.010.

**Q.** And the MTT [1, 4]?
**A.** The MTT was −0.731.

**Q.** And the GE-HTS (OXPHOS gene expression; [4])?
**A.** Its GE-HTS is −0.064.

**Q.** And the cyt c (cytochrome c; [4])?
**A.** Its cyt c is 0.365.

**Q.** And the ΔΨm [2, 4]?
**A.** The ΔΨm was 0.050.

**Q.** With `CC[C@@]1(O)C[C@H](O)c2c(cc3c(c2O)C(=O)c2c(O)ccc(O)c2C3=O)[C@H]1C(=O)OC` [rutilantinone] as the molecule, how does the ROS (reactive oxygen species; [5]) read?
**A.** Its ROS is 2.445.

**Q.** What about the Viability (C2C12 myotubes; [5]) of the same molecule?
**A.** Its Viability is 0.192.

**Q.** And the mitoOX (mtOXPHOS transcripts; [5])?
**A.** The mitoOX was −3.039.

**Q.** And the nucOX (nuOXPHOS transcripts; [5])?
**A.** Its nucOX is −1.152.

**Q.** And the MTT [1, 5]?
**A.** Its MTT is −2.979.

**Q.** And the GE-HTS (OXPHOS gene expression; [5])?
**A.** The GE-HTS was −1.917.

**Q.** And the cyt c (cytochrome c; [5])?
**A.** Its cyt c is 0.372.

**Q.** What about the ΔΨm [2, 5] of the same molecule?
**A.** The ΔΨm was −3.758.

**Q.** Which results are given for `OCc1ccccc1O` [salicyl alcohol]?
**A.** ROS (reactive oxygen species; [6]): 0.479; Viability (C2C12 myotubes; [6]): 0.377; mitoOX (mtOXPHOS transcripts; [6]): −0.498; nucOX (nuOXPHOS transcripts; [6]): −0.433; MTT [1, 6]: −0.178; GE-HTS (OXPHOS gene expression; [6]): −0.486; cyt c (cytochrome c; [6]): 0.424; ΔΨm [2, 6]: −0.590

**Q.** What does the source list for `CC[C@@H](C(=O)[C@@H](C)[C@@H](O)[C@H](C)[C@@H]1O[C@@H]([C@@H](CC)C(=O)O)CC[C@@H]1C)[C@H]1O[C@]2(C=C[C@@H](O)[C@]3(CC[C@@](C)([C@H]4CC[C@](O)(CC)[C@H](C)O4)O3)O2)[C@H](C)C[C@@H]1C` [salinomycin, reference compound]?
**A.** ROS (reactive oxygen species; [7]): −3.111; Viability (C2C12 myotubes; [7]): −0.247; mitoOX (mtOXPHOS transcripts; [7]): −3.359; nucOX (nuOXPHOS transcripts; [7]): −0.345; MTT [1, 7]: −2.918; GE-HTS (OXPHOS gene expression; [7]): −1.400; cyt c (cytochrome c; [7]): −0.566; ΔΨm [2, 7]: 2.976

**Q.** With `C[C@@H]1NCCc2cc(O)c(O)cc21` [salsolinol] as the molecule, how does the ROS (reactive oxygen species; [8]) read?
**A.** Its ROS is −0.248.

**Q.** And the Viability (C2C12 myotubes; [8])?
**A.** The Viability was −1.127.

**Q.** And the mitoOX (mtOXPHOS transcripts; [8])?
**A.** The mitoOX was −0.397.

**Q.** What about the nucOX (nuOXPHOS transcripts; [8]) of the same molecule?
**A.** The nucOX was −0.197.

**Q.** And the MTT [1, 8]?
**A.** Its MTT is −1.113.

**Q.** And the GE-HTS (OXPHOS gene expression; [8])?
**A.** The GE-HTS was −0.284.

**Q.** What about the cyt c (cytochrome c; [8]) of the same molecule?
**A.** The cyt c was −0.994.

**Q.** And the ΔΨm [2, 8]?
**A.** The ΔΨm was −0.160.

**Q.** Which results are given for `C[C@@H]1O[C@@H](O[C@H]2[C@H](O[C@H]3CC[C@@]4(C)[C@@H](CC[C@]5(C)[C@@H]4CC=C4[C@@H]6CC(C)(C)CC[C@]6(C(=O)O)CC[C@]45C)[C@]3(C)CO)OC[C@H](O)[C@@H]2O)[C@H](O)[C@H](O)[C@H]1O` [sapindoside A]?
**A.** ROS (reactive oxygen species; [5]): −2.825; Viability (C2C12 myotubes; [5]): −3.886; mitoOX (mtOXPHOS transcripts; [5]): 0.322; nucOX (nuOXPHOS transcripts; [5]): −1.786; MTT [1, 5]: −4.558; GE-HTS (OXPHOS gene expression; [5]): −1.176; cyt c (cytochrome c; [5]): −4.058; ΔΨm [2, 5]: −3.760

**Q.** For `COc1ccc2c(c1)OC/C(=C\c1ccc(OC)c(O)c1)C2=O` [sappanone A dimethyl ether], which “ROS (composite Z-score)” value (reactive oxygen species; Conc 20 μM) is on record?
**A.** The value was −2.429.

**Q.** And the “Viability (composite Z-score)” value (C2C12 myotubes; Conc 20 μM)?
**A.** Its value is −1.045.

**Q.** And the “mitoOX (composite Z-score)” value (mtOXPHOS transcripts; Conc 20 μM)?
**A.** Its value is 0.248.

**Q.** What about the “nucOX (composite Z-score)” value (nuOXPHOS transcripts; Conc 20 μM) of the same molecule?
**A.** The value was 0.495.

**Q.** And the “MTT (composite Z-score)” value ([1]; Conc 20 μM)?
**A.** Its value is −1.865.

**Q.** And the “GE-HTS (composite Z-score)” value (OXPHOS gene expression; Conc 20 μM)?
**A.** Its value is 0.450.

**Q.** What about the “cyt c (composite Z-score)” value (cytochrome c; Conc 20 μM) of the same molecule?
**A.** Its value is −0.664.

**Q.** What about the “ΔΨm (composite Z-score)” value ([2]; Conc 20 μM) of the same molecule?
**A.** The value was 0.017.
